The source made the active and inactive calls.
Legend:
[1] = inhibitors of firefly luciferase expression or activity, dose response, H4 neuroglioma cells, luminescence (AID 1990); assay type: functional, cell-based
[2] = Luminescence Cell-Based Dose Response HTS to Identify Inhibitors of 5'UTR Stem-Loop Driven Prion Protein mRNA Translation in H4 Neuroglioblastoma Cells. [Related pubchem assays: 1827 (Project Summary), 1813 (Primary HTS)]; assay type: functional
[3] = HEK293T cytotoxicity, dose response, cytotoxicity control for miR-122 modulator project, cell-based, inhibitor set, cherry-pick, set 2 (AID 720697); assay type: functional
[4] = HepG2 cell cytotoxicity, dose response, cytotoxicity control for Shn3 inhibitor project, CellTiter-Glo, cherry-picked (AID 624134); assay type: functional, cell-based
[5] = inhibitors of SNCA 5'UTR-driven reporter translation, confirmation, H4 neuroglioma cells, luminescence (AID 1988); assay type: functional, cell-based
[6] = Shn3 3'UTR reporter inhibitors, dose response, cell-based, Clone20 osteoblasts, firefly luciferase, cherry-picked (AID 624132); assay type: functional;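 note: firefly luciferase luminescence from reporter carrying the Shn3 3'UTR in osteoblasts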
[7] = HEK293T cytotoxicity, dose response, cytotoxicity control for miR-122 modulator project, cell-based, activator set, cherry-pick (AID 720690); assay type: functional;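 note: HEK293T human cells scored for general mammalian cytotoxicity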
[8] = control 3'UTR Renilla luciferase suppression, dose response, counter-screen for Shn3 inhibitor project, cell-based, Clone20-Shn3RL, cherry-picked (AID 624133); assay type: functional
[9] = inhibitors of intracellular T. cruzi replication, confirmation, NIH3T3 host cells, beta-gal luminescence (AID 2044); assay type: functional, cell-based;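 note: intracellular parasites grown in NIH/3T3 mouse fibroblasts as host cells; luminescent beta-galactosidase reporter signal from transgenic T. cruzi replicating inside host cells; inhibitors lower the luminescence signal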
[10] = cytotoxicity toward NIH3T3 fibroblasts, dose response, counter-screen, cell-based, ATP luminescence, mouse fibroblasts (AID 2010); assay type: functional;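 note: cells exposed to compound for about 90 hours before reading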
[11] = target: T1, COUP transcription factor 2 (Homo sapiens, UniProt P24468); assay: Luminescence-based cell-based high throughput dose response assay to identify inhibitors of COUP-TFII (NR2F2).; assay type: functional;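 note: HEK293 cells transiently cotransfected with COUP-TFII expression vector and reporter; luciferase reporter luminescence driven by COUP-TFII from the pX2-168 reporter plasmid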
T1 sequence (P24468 whole entry): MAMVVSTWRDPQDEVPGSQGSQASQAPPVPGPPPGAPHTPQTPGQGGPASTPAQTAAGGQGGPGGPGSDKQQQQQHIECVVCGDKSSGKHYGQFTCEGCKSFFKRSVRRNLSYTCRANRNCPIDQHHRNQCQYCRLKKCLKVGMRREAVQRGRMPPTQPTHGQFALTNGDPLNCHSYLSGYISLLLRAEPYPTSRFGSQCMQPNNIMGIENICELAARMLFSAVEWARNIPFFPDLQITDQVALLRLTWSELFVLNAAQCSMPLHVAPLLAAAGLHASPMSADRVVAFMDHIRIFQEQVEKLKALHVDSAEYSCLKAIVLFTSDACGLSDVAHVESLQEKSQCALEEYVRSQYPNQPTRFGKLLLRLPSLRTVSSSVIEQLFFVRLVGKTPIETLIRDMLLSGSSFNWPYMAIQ

[12] = target: FAD-linked sulfhydryl oxidase ALR (Homo sapiens, UniProt P55789); assay: inhibitors of human ALR sulfhydryl oxidase, dose response, biochemical, H2O2 detection, luminescence, cherry-pick (AID 493248)
FAD-linked sulfhydryl oxidase ALR, sequence (P55789 whole entry): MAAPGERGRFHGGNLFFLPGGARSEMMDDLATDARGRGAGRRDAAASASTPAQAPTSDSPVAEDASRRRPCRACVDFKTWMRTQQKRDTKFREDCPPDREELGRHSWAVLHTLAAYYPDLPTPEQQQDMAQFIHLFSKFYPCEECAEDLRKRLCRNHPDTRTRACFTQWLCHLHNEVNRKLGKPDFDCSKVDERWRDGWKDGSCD

Caspase-6 = target: T2, Caspase-6 (Homo sapiens, UniProt P55212); assay: human caspase-6 inhibitors, dose response, biochemical, VEID-R110 fluorescence, cherry-pick (AID 720632)
T2 sequence (P55212 whole entry): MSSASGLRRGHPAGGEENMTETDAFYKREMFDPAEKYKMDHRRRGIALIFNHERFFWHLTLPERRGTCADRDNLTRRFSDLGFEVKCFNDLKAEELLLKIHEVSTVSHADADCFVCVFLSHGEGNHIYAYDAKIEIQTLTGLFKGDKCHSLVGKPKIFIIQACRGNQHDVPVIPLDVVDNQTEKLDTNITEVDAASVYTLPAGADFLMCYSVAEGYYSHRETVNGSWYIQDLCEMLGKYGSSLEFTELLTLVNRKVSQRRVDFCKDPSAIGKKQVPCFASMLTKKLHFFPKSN

[13] = target: T3, Histone-lysine N-methyltransferase NSD2 (Homo sapiens, UniProt O96028); assay type: biochemical
T3 sequence (O96028 whole entry): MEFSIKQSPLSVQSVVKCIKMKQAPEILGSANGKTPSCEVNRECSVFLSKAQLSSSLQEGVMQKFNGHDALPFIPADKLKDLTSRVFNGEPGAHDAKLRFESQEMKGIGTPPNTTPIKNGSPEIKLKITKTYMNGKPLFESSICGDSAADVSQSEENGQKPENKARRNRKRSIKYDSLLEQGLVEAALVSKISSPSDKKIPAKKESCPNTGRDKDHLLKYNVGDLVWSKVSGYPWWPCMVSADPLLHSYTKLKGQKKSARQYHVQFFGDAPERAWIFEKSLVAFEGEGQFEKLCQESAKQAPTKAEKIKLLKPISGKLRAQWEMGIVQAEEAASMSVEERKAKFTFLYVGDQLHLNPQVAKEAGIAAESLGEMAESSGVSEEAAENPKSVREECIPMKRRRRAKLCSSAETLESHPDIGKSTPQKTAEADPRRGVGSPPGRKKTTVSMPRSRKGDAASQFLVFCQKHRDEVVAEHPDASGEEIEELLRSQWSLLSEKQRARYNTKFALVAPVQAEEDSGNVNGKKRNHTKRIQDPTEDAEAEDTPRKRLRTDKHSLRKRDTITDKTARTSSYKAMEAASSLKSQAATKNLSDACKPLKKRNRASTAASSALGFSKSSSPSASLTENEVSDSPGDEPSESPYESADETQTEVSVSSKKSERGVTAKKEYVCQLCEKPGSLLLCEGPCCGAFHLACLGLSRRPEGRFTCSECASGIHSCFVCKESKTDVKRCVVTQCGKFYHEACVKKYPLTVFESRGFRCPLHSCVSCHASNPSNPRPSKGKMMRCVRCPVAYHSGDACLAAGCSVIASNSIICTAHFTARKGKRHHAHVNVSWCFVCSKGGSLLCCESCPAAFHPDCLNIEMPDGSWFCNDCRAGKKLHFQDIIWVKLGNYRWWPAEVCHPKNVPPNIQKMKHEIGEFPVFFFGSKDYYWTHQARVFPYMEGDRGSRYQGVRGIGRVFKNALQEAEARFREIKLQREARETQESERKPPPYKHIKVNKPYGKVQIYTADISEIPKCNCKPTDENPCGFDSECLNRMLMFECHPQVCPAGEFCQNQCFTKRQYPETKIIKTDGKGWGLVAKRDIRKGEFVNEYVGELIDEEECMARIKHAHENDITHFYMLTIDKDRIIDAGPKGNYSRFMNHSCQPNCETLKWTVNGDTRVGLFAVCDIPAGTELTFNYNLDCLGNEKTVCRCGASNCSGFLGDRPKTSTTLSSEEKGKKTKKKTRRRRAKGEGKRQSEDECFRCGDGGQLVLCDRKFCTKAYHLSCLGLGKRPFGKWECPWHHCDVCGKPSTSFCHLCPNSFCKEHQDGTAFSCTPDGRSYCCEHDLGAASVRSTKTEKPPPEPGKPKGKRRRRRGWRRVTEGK

[14] = target: T4, Carboxy-terminal domain RNA polymerase II polypeptide A small phosphatase 1 (Homo sapiens, UniProt Q9GZU7); assay: inhibitors of CTDSP1, concentration-response testing, biochemical assay, absorbance-based, actives from ultra-high-throughput screening (AID 540297); assay type: functional
T4 sequence (Q9GZU7 whole entry): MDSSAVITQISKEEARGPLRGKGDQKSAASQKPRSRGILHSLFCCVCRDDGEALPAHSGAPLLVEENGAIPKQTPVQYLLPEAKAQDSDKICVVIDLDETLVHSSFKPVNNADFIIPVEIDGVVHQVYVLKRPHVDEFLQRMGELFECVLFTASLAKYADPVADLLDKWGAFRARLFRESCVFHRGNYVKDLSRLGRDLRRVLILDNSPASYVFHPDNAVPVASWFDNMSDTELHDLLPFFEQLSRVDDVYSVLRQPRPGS

fMet-Leu-Phe receptor = target: T5, fMet-Leu-Phe receptor (Homo sapiens, UniProt P21462); assay: FPR ligands, dose response (AID 519); assay type: functional
T5 sequence (P21462 whole entry): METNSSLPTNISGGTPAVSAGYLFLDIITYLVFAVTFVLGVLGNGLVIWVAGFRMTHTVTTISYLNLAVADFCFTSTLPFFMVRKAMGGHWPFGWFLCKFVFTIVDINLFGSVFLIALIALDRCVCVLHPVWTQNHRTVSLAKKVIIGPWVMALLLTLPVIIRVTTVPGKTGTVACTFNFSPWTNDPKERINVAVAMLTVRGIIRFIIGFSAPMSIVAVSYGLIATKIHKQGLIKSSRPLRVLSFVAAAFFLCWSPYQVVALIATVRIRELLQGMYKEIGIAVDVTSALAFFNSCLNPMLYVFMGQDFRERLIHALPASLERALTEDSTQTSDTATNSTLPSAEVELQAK

[15] = inhibitors of clade B AD8 Env fusion, dose response, cell-based, cherry-pick (AID 652062); assay type: functional;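 note: luciferase signal from cell-cell fusion driven by HIV-1 clade B AD8 Env; potency is for inhibitors of fusion seen as a drop in luminescence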
[16] = CEM21 lymphoblast cell cytotoxicity, dose response, cytotoxicity control for viral fusion inhibitor project, CellTiter-Glo luminescence, cherry-picked (AID 652042); assay type: functional, cell-based;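 note: potency for signal decrease meaning cytotoxicity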
Fatty acid synthase [17] = target: T6, Fatty acid synthase (Homo sapiens, UniProt P49327); assay: FAS thioesterase domain inhibitors, dose response, biochemical, endpoint fluorescence intensity, uHTS hits (AID 624327); assay type: functional;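 note: fluorescence from hydrolysis of an O-methyl fluorescein acyl ester substrate by the enzyme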
T6 sequence (P49327 whole entry, the tested form may be a part): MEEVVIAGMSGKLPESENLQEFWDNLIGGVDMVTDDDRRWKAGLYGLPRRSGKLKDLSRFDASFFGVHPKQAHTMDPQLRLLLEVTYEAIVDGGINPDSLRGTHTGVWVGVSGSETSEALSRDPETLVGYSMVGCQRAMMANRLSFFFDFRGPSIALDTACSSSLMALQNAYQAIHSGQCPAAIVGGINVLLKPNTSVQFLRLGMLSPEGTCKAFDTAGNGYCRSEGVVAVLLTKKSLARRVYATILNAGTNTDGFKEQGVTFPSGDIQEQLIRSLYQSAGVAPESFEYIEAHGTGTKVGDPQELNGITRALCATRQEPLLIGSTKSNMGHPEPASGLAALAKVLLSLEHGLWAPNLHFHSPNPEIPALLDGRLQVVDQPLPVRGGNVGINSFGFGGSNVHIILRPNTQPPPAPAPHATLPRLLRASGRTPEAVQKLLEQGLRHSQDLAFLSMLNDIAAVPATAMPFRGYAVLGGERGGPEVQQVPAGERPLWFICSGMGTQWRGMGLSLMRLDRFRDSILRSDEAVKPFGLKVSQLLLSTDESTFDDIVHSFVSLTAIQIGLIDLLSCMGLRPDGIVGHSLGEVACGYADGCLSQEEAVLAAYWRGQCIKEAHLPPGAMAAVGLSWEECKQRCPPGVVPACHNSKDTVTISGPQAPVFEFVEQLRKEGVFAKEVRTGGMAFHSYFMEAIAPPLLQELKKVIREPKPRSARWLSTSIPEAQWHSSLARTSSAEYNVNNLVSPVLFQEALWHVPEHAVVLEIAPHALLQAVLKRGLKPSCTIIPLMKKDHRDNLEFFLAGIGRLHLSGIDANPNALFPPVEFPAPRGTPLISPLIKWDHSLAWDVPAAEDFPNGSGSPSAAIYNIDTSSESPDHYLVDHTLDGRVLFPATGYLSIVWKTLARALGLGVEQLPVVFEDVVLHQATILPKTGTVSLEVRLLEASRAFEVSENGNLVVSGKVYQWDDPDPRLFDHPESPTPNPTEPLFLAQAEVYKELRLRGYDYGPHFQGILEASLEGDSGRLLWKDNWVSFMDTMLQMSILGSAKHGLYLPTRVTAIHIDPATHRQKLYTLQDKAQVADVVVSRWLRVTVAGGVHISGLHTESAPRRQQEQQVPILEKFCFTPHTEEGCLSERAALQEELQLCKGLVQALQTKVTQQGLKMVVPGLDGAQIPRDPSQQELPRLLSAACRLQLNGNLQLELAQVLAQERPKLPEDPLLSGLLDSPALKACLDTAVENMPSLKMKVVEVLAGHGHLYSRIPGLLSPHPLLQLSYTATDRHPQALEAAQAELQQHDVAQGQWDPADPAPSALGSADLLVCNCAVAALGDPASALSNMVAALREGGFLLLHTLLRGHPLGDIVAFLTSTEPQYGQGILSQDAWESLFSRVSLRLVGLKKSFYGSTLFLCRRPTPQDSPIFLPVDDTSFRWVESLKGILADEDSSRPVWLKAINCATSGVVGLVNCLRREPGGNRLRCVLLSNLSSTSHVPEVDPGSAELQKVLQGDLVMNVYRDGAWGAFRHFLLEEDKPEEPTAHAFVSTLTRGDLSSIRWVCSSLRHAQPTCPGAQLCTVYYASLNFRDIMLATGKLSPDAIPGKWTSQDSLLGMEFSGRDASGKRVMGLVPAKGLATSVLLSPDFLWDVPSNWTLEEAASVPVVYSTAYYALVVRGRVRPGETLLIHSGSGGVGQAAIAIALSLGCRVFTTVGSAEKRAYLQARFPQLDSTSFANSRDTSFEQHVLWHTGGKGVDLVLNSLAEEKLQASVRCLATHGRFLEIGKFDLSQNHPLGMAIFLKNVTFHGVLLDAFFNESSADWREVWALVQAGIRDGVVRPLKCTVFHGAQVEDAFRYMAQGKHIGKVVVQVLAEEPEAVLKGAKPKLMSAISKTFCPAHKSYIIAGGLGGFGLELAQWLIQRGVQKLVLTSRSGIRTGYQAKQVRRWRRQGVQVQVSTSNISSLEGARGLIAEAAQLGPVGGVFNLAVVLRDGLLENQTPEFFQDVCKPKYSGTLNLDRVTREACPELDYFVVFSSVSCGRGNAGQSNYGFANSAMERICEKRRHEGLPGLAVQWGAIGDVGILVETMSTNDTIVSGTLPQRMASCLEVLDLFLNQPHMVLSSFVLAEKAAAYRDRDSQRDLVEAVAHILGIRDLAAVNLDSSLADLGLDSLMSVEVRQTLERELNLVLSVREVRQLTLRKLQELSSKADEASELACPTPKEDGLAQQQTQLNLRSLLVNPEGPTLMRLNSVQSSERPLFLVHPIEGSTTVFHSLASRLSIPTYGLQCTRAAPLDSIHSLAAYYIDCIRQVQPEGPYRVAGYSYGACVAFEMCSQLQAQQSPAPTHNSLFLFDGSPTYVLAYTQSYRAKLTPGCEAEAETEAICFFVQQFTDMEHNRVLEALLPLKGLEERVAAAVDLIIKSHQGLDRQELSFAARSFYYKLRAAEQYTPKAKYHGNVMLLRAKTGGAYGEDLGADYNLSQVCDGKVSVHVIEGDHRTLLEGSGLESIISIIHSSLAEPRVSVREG

[18] = microbe, parasite or virus in culture; assay type: functional; conditions: Mycobacterium tuberculosis
Fatty acid synthase [19] = target: T6, Fatty acid synthase; assay: FAS thioesterase domain inhibitors, dose response, biochemical, kinetic fluorescence intensity (AID 624326); assay type: functional;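 note: rate of fluorescence rise from hydrolysis of a fluorogenic O-methyl fluorescein ester substrate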
[20] = cytotoxicity in HEK-293T cells, dose response, cytotoxicity control for TCR NF-kB inhibitor project, luminescence, T-cell screen hits (AID 489026); assay type: functional, cell-based;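 note: cells exposed to compound about 14 hours before the viability readout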
[21] = miR-122 activators in hepatoma reporter cells, dose response, cell-based, Huh7 psiCHECK-miR122, Renilla luciferase, cherry-picked (AID 651956); assay type: functional;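 note: huh7 hepatoma cells stably carrying a psiCHECK-2 miR-122 sensor plasmid; renilla luciferase signal reporting endogenous miR-122 activity after 48 h compound exposure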
BJ [22] = assay: cytotoxicity toward BJ-TERT-LT-ST fibroblasts, dose response, cell-based, RAS-independent, luminescence (AID 1935); assay type: functional; conditions: Homo sapiens;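 note: BJ fibroblasts immortalized with TERT plus LT and ST oncogenes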
BJ [23] = assay: cytotoxicity toward BJ-TERT fibroblasts, dose response, cell-based, RAS-independent, luminescence (AID 1933); assay type: functional; conditions: Homo sapiens
BJ [24] = assay: cells; assay type: functional, cell-based; conditions: Homo sapiens
[25] = cytotoxicity toward DRD oncogenic fibroblasts, dose response, cell-based, non-viral oncogenic, luminescence (AID 1934); assay type: functional; conditions: Homo sapiens
Paired box protein Pax-8 = Paired box protein Pax-8 (Homo sapiens, UniProt Q06710); assay: inhibitors of PAX8-driven TPO luciferase reporter, dose response, RMG-I cells, cherry-pick (AID 687027); assay type: functional, cell-based;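 note: luciferase reporter driven by Pax8 target thyroperoxidase promoter measured by SteadyGlo luminescence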
Paired box protein Pax-8, sequence (Q06710 whole entry): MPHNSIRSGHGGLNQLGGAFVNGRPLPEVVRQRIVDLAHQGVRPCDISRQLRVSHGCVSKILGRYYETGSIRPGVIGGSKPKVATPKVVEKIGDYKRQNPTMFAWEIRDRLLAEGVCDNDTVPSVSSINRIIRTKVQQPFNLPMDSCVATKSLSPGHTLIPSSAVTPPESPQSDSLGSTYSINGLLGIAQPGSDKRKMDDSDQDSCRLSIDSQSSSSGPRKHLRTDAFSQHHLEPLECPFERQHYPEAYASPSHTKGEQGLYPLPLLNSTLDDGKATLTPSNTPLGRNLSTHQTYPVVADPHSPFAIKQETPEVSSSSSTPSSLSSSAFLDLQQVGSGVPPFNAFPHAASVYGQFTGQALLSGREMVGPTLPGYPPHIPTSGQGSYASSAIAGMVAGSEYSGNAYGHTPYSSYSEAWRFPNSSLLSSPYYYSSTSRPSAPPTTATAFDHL

[26] = non-specific cell cytotoxicity, dose response, cytotoxicity control for PAX8 inhibitor project, plate reader, dry powder samples (AID 743021); assay type: functional, cell-based
BJ [27] = assay: cytotoxicity toward Ras-transformed BJeLR fibroblasts, dose response, cell-based, alamar blue fluorescence, cherrypicked samples (AID 2631); assay type: functional; conditions: Homo sapiens;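 note: confirmatory dose-response assay in RAS-dependent BJ fibroblasts engineered with TERT, LT and ST, with cytotoxicity read by fluorescence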

Question: Which results are given for N#Cc1ccc(NC(=O)Nc2ccc(Oc3ccc(NC(=O)Nc4ccc(C#N)cc4)cc3)cc2)cc1?
Answer: EC50 [1]: > 120 µM (not active); EC50 [2]: 10.1 µM (active); AC50 [3]: 5.02 µM (active); AC50 [4]: 6.46 µM (active); EC50 [5]: 8.67 µM (active); AC50 [6]: 2.68 µM (active); AC50 [7]: 6.66 µM (active); AC50 [8]: 13.1 µM (active); EC50 [9]: 1.01 µM (active); EC50 [10]: > 60 µM (not active)

Question: With CCOC(=O)N1CCC(NC(=O)C2CCCN(Cc3nc(-c4ccc(CC)cc4)oc3C)C2)CC1 (stereo unspecified) as the molecule, how does the IC50 [11] read?
Answer: 9.26 µM (active)

Question: For C=CCc1cc(/C=C/c2nc(O)c([N+](=O)[O-])c(O)n2)cc(OC)c1O, which AC50 [12] is on record?
Answer: 0.469 µM (active)

Question: What about the AC50 (Caspase-6) of the same molecule?
Answer: 9.31 µM (active)

Question: And the AC50 [13]?
Answer: > 20 µM (inactive)

Question: What about the IC50 [14] of the same molecule?
Answer: 19.3 µM (active)

Question: With CCOc1ccccc1NC(=O)CSc1nccn1-c1ccccc1 as the molecule, how does the Ki (fMet-Leu-Phe receptor) read?
Answer: > 66.7 µM (inactive)

Question: With CC1Cc2cc(-c3csc(NC(=O)Cc4cccs4)n3)ccc2N1S(C)(=O)=O (stereo unspecified) as the molecule, how does the AC50 [15] read?
Answer: 5.65 µM (active)

Question: And the AC50 [16]?
Answer: 54.5 µM (active)

Question: And the IC50 (Fatty acid synthase [17])?
Answer: 14.1 µM (active)

Question: What about the IC50 [11] of the same molecule?
Answer: 3.11 µM (active)

Question: What about the CC50 [18] of the same molecule?
Answer: > 40 µM (active)

Question: And the IC50 (Fatty acid synthase [19])?
Answer: 7.01 µM (active)

Question: And the IC50 [20]?
Answer: 38 µM (inactive)

Question: Which Ki (fMet-Leu-Phe receptor) does the source give for O=C1Nc2ccccc2/C1=C1/SC(=S)N(CC2CCCO2)C1=O (stereo unspecified) here?
Answer: > 66.7 µM (inactive)

Question: For COc1ccccc1C1C(C(=O)c2ccccc2)=C(O)C(=O)N1CC(C)O (stereo unspecified), which Ki (fMet-Leu-Phe receptor) is on record?
Answer: 24.6 µM (inactive)

Question: Which AC50 (Caspase-6) does the source give for CCOc1cc(C(=O)O)ccc1OCCOc1ccccc1 here?
Answer: 34 µM (active)

Question: With Cc1onc(C(=O)N2CCN(C(c3ccccc3)c3ccccc3)CC2)c1[N+](=O)[O-] as the molecule, how does the AC50 [3] read?
Answer: 10.8 µM (active)

Question: What about the AC50 [21] of the same molecule?
Answer: 66.8 µM (active)

Question: What about the AC50 [7] of the same molecule?
Answer: 3.14 µM (active)

Question: What about the EC50 (BJ [22]) of the same molecule?
Answer: > 150 µM (not active)

Question: What about the EC50 (BJ [23]) of the same molecule?
Answer: 0.659 µM (inconclusive)

Question: And the EC50 (BJ [24])?
Answer: 5.65 µM (active)

Question: What about the EC50 [25] of the same molecule?
Answer: 4.77 µM (active)

Question: And the AC50 (Paired box protein Pax-8)?
Answer: 5.28 µM (active)

Question: What about the AC50 [26] of the same molecule?
Answer: 3.3 µM (active)

Question: And the EC50 (BJ [27])?
Answer: 6.63 µM (active)
